Series [1] has as its system colon cancer cell of SNU-C1. Kind of series: Growth inhibition of SNU-C1 (MTT). In kind it is cell-based.
Series [2] deals with bladder cancer cell of HT-1197. Kind of series: Growth inhibition of HT-1197 (MTT). It is filed as cell-based. On the procedure: (§1) In the present experiment, the inhibitory activity of the compound of formula (1) was determined against the growth of K562 cancer cell. First, the cells were allowed to stand in RPMI (Roswell Park Memorial Institute)-1640 medium containing 10% (v/v) fetal bovine serum in an incubator of 37° C. and 5% by volume of CO2. The cancer cells (1000 cells) were transferred to a 96-well plate, and the test compound was diluted. The plate was allowed to stand under the above mentioned conditions for 2 days. After this treatment, to the cells was added 0.2% MTT (3-[4,5-dimethylthiazol-2-yl]-2,5-diphenyltetrazolium bromide) solution, and the resulting mixture was allowed to stand under the constant temperature-condition for 4 hours. The supernatant was removed to leave the resulting crystal. DMSO was added to dissolve the crystal, and the absorbance of the solution was measured at 540 nm. IC50 value was calculated using a computer system according to the following formula: […]
(§2) The test was performed according to the same procedure as Experiment 1.

Series [3] relates to rectal cancer cell of CMT-93. Nature of the series: Growth inhibition of CMT-93 (MTT). In kind it is cell-based. On the procedure: as §1, §2
Series [4] concerns pancreatic cancer cell of CAPAN-2. Nature of the series: Growth inhibition of CAPAN-2 (MTT). It is filed as cell-based. The settings on record: CAPAN-2.
Series [5] relates to encephalophyma cell of A172. Kind of series: Growth inhibition of A172 (MTT). In kind it is cell-based. As for the experimental part: as §1, §2
Series [6] relates to pancreatic cancer cell of PANC-1. Nature of the series: Growth inhibition of PANC-1 (MTT). It is filed as cell-based.
For series [7], the system named is cervical cancer cell of HeLa229. Kind of series: Growth inhibition of HeLa 229 (MTT). In kind it is cell-based.
The nature of series [8]: Comparative pharmacokinetic test in white rats. In kind it is in vivo, white rats (Sprague-Dawley). The conditions noted are these: male, Sprague-Dawley, plasma, po, rat, 50 mg/kg, P.O. On the procedure:
On the previous day to the test, white rats (Sprague-Dawley, 250˜280 g, male) were put under anesthesia by pentobarbital sodium (50 mg/kg, I.P.). Then, cannula (polyethylene tube; diameter: 0.58mm) was introduced into the rats via the carotid artery and jugular vein, and drawn out to the back. After the operation, the rats were fasted for 16 hours and used for the test. […] Blood was collected in 0, 0.5, 1, 1.5, 2, 2.5, 3, 3.5, 4, 4.5, 5, 6, 8, 10, 12, and 24 hours from the carotid artery. The samples for HPLC analysis were prepared using the collected blood according to the following procedure and were analyzed under the following conditions.
Blood was collected by an amount of 0.5 ml at each prearranged time and centrifuged at 15000 rpm for 7 minutes to separate […] of plasma. In order to remove proteins, MeOH was added in an amount of […], twice as much as the amount of plasma, and the mixture was shaken for 30 minutes. The mixture was centrifuged again at 15000 rpm for 5 minutes to give protein free supernatant, which was then analyzed by HPLC.
Flow rate: 1.0 ml/min, UV detection at 267 nm
Column: 4.6×150 mm, 5C18-AR-II, COSMOSIL
Eluent: Mixture of ion pair sample (420 ml) and MeOH (580 ml)
Ion pair sample: 7.5 g of 1-octanesulfonic acid was dissolved in 800 ml of water. The resulting mixture was adjusted to pH 2.5 using phosphoric acid and diluted with water to 1000 ml volume.
Here, the pharmacokinetic parameters are Tmax (time to reach the maximum blood concentration), Cmax (maximum blood concentration), AUC (area under the curve of time-blood concentration), and T1/2 (half time in blood), and the AUC was calculated under trapezoid rule (see Tables 6, 7 and FIGS. 1, 2).

Series [9] relates to L1210 cancer cell (leukemia cell line). Kind of series: Growth inhibition of L1210 cancer cell (MTT). It is filed as cell-based. The conditions noted are these: Mus musculus. On the procedure:
as §1
In the present experiment, the inhibitory activity of the compound of formula (1) was determined against the growth of L1210 cancer cell. The test was performed according to the same procedure as Experiment 1.

Series [10] deals with U937 cancer cell (monocyte like leukemia cell line). Kind of series: Growth inhibition of U937 cancer cell (MTT). It is filed as cell-based. As for the experimental part:
as §1
In the present experiment, the inhibitory activity of the compound of formula (1) was determined against the growth of U937 cancer cell. The test was performed according to the same procedure as Experiment 1.

The test system of series [11] is breast cancer cell (MCF-7). Nature of the series: Growth inhibition of MCF-7 (MTT). In kind it is cell-based. The settings on record: Homo sapiens, MCF7. As for the experimental part: as §1, §2
Series [12] deals with acute myelogenous leukemia cell (KG-1). Nature of the series: Growth inhibition of KG-1 (MTT). It is filed as cell-based.
Series [13] relates to oral epithelial cancer cell (KB). Nature of the series: Growth inhibition of KB (MTT). In kind it is cell-based. The settings on record: Homo sapiens. As for the experimental part: as §1, §2
Series [14] concerns K562 cancer cell (CML cell line). Kind of series: Growth inhibition of K562 cancer cell (MTT). In kind it is cell-based. The settings on record: Homo sapiens, K562, 48 h, K562, 2 days, MTT; read-out: IC50. On the procedure: In the present experiment, the inhibitory activity of the compound of formula (1) was determined against the growth of K562 cancer cell. First, the cells were allowed to stand in RPMI (Roswell Park Memorial Institute)-1640 medium containing 10% (v/v) fetal bovine serum in an incubator of 37° C. and 5% by volume of CO2. The cancer cells (1000 cells) were transferred to a 96-well plate, and the test compound was diluted. The plate was allowed to stand under the above mentioned conditions for 2 days. […] The supernatant was removed to leave the resulting crystal.

Series [15] concerns prostatic cancer cell (DU-145). Nature of the series: Growth inhibition of DU-145 (MTT). In kind it is cell-based. The conditions noted are these: Homo sapiens. As for the experimental part: as §1, §2
The next series deals with hepatoma cell (SNU-182). Kind of series: Growth inhibition of SNU-182 (MTT). The settings on record: Homo sapiens. In kind it is cell-based. On the procedure:
as §1, §2

The subject of series [16] is ovarian cancer cell (SK-OV-03). Nature of the series: Growth inhibition of SK-OV-03 (MTT). It is filed as cell-based. On the procedure:
as §1, §2

For series [17], the system named is lymphoma cell (RPMI-6666). Kind of series: Growth inhibition of RPMI-6666 (MTT). It is filed as cell-based. As for the experimental part: as §1, §2
Series [18] deals with hematologic malignancy cell (HL-60). Nature of the series: Growth inhibition of HL-60 (MTT). It is filed as cell-based. The settings on record: Homo sapiens.
Series [19] deals with gastric cancer cell (KATO III). Kind of series: Growth inhibition of KATO III (MTT). It is filed as cell-based. The settings on record: Homo sapiens. As for the experimental part: as §1, §2
The nature of series [20]: Acute toxicity test in mice (oral administration). The conditions noted are these: both sexes, ICR, mouse, in vivo, 2000 mg/kg; mice, oral. On the procedure: (§3) In order to determine the acute toxicity of the compound of the present invention when the compound is orally administered, mice (ICR, 24˜26 g) were fasted for 16 hours. One group consists of 10 males and 10 females. The first group is the control group and physiological saline was administered per oral to this group. The compounds of Examples 2 and 4 were orally administered in a dosage of 2000 mg/kg, the maximum dosage in acute toxicity test, to each test group. […] On the last day of the test, 14th day from the start, the mice were subjected to an autopsy in order to examine changes of the internal organs. […] This means that the compounds of the present invention including those of Examples 2 and 4 are safe in the aspect of acute toxicity.

The test system of another series is mice (ICR). Kind of series: Acute toxicity test in mice (oral administration). The conditions noted are these: mouse, in vivo, po, 2000 mg/kg. On the procedure: as §3
The subject of another series is lung cancer cell (A549). Nature of the series: Growth inhibition of A549 (MTT). In kind it is cell-based. The settings on record: Homo sapiens. As for the experimental part:
as §1, §2

The text below walks through data of patent US20040248918A1, “N-phenyl-2-pyrimidine-amine derivatives and process for the preparation thereof” (IL YANG PHARM. CO., LTD., priority 2003, published 2004).

Broadly, the IC50 is the midpoint of a concentration-inhibition curve. The Cmax is the highest concentration seen after dosing. For orientation: Tmax means the time from dosing to the highest level. In general, AUC refers to the area under the concentration-time curve, a measure of exposure. Read a high AUC as more exposure. One may read the LD50 as the dose at which mortality reaches 50%.

The structures appear in SMILES notation. Converted amounts (≈) assume the structure as drawn. A value given as a limit tells only on which side of the number the result lay.

As to `N.N.[Cl][Pt][Cl]` [Cisplatin, cisplatin, reference compound], the IC50 in [1] amounted to 302 µg/mL; in series [2], 7.5 µg/mL; in series [3], 0.67 µg/mL; in series [4], 496.9 µg/mL; in series [5] it was 5.7 µg/mL; in [6] it was 41.55 µg/mL. In series [7], this compound gave a concentration for half-maximal inhibition (IC50) of 0.9 µg/mL.
Compound `CS(=O)(=O)O.Cc1ccc(NC(=O)c2ccc(CN3CCCN(C)CC3)cc2)cc1Nc1nccc(-c2cccnc2)n1` [Example 2, 4-(4-methylhomopiperazin-1-ylmethyl)-N-[4-methyl-3-(4-(pyridin-3-yl)pyrimidin-2-yl)aminophenyl]benzamide methanesulfonate] came in with a Cmax in series [8] of 2200 ng/mL. For the same compound, the Tmax in series [8] came out at 1.5 h. Also, the exposure (AUC) in series [8] (trapezoid rule) is 26200 ng·h/mL. Besides, the IC50 in series [9] turned out to be 7.6 µg/mL; in [10] (Homo sapiens, U-937), 0.7 µg/mL; in series [11] it was 36.2 µg/mL; in [12] (Homo sapiens), 7.31 µg/mL; in [13], 31.6 µg/mL; in series [14], 1.2 µg/mL. Besides, the IC50 in series [15] came out at 30.3 µg/mL; in the series on hepatoma cell (SNU-182), 24.7 µg/mL; in series [16], 38 µg/mL; in series [17] (Homo sapiens), 14.7 µg/mL; in [18], 17.7 µg/mL; in series [19] it was 30 µg/mL. The compound also had an IC50 in the series with lung cancer cell (A549) of 27.6 µg/mL. Also, the “Improved activity versus Imatinib mesylate” value in series [10] was 40 times. Further, the results for the “IC50 as fraction of that of Imatinib mesylate” value in series [12] and in [17] were “¼” and “½”, respectively. Also, the 50% lethal dose (LD50) at 14 days in series [20] was at least 2000 mg/kg. Further, the “Clinical conditions and autopsy” value in the series on mice (ICR) is recorded as “neither abnormal response nor specific autopsy result was observed”. For the same compound, in the series on mice (ICR), the “Mortality during the test period” value is on record as “no mouse died”.
With `O=c1[nH]cc(F)c(=O)[nH]1` [Example 5-FU, 5-Fu, reference compound], the IC50 in series [1] is 95.3 µg/mL (≈ 733 µM); in [2], 98.5 µg/mL (≈ 757 µM); in series [3], 1.1 µg/mL (≈ 8.46 µM); in series [4], 1000> μg/ml; in series [5], 99 µg/mL (≈ 761 µM); in series [6], 553.8 µg/mL (≈ 4260 µM). Further, in [7], the IC50 came to 81.03 µg/mL (≈ 623 µM).
